pIC50: −log10 of the molar value.

A short description of series [1]: in vitro. To be noted: chlorocebus sabaeus, Vero E6 (Vero C1008) cells.
Series [2] has as its system SARS-CoV-2. Nature of the series: microbe, parasite or virus in culture. The class given is functional, organism-based, Chlorocebus sabaeus, Vero C1008. To be noted: Severe acute respiratory syndrome coronavirus 2, Vero C1008, 48 h; for pIC50: read-out: IC50; for IC50: read-out: pIC50 (converted).
The subject of series [3] is SARS-CoV-2. Nature of the series: microbe, parasite or virus in culture. Conditions: Severe acute respiratory syndrome coronavirus 2, Vero C1008, 48 h; for IC50: read-out: pIC50 (converted).

The CC50 is the concentration that lowers cell viability or growth by half. Usually pIC50 stands for the IC50 on a negative log10 scale, so that one unit is a factor of ten. For the compound `Cc1c(O)cccc1C(=O)N[C@@H](CSc1ccccc1)[C@H](O)CN1C[C@H]2CCCC[C@H]2C[C@H]1C(=O)NC(C)(C)C`, the CC50 at 48 h in series [1] (CC50) and in series [1] (pCC50) was 11.2 µM throughout. For the same compound, the pIC50 in series [2] is roughly 5.40; in series [3] it was 5.28. The IC50 in series [2] is roughly 3.98 µM; in series [3], 5.25 µM.

Consider `Cc1ccc(-c2nc3c(nc2-c2ccc(C)cc2)N(CCCCCCC(=O)O)CCC3)cc1`, for which the CC50 at 48 h in series [1] (CC50) and in series [1] (pCC50) was 50.1 µM in each case. Moreover, the pIC50 in series [2] is roughly 4.78; in series [3] it was 4.76. Besides, the IC50 is roughly 16.6 µM in series [2] and 17.4 µM in series [3].

Consider `CN(C)CC/C=C1\c2ccccc2CSc2ccccc21` [DOTHIEPIN], for which the CC50 at 48 h in series [1] (CC50) and in series [1] (pCC50) was 20 µM throughout. The pIC50 in series [2] is less than 4.60; in series [3] it was 4.78. Moreover, the values for the IC50 in series [2] and in series [3] were greater than 25.1 µM and 16.6 µM, respectively.

For the compound `COC(=O)N[C@H](C(=O)N1CCC[C@H]1c1ncc(-c2ccc(-c3ccc(-c4cnc([C@@H]5CCCN5C(=O)[C@@H](NC(=O)OC)C(C)C)[nH]4)cc3)cc2)[nH]1)C(C)C`, the CC50 at 48 h was roughly 19.7 µM in series [1] (CC50) and roughly 19.5 µM in series [1] (pCC50). Moreover, the pIC50 in series [2] and in series [3] was less than 4.00 in each case. Further, the IC50 in series [2] and in series [3] was greater than 100 µM each time.

`CC(C)(C)c1cc(C(C)(C)C)c(NC(=O)c2c[nH]c3ccccc3c2=O)cc1O` [IVACAFTOR]: the CC50 at 48 h in series [1] (CC50) was 4.62 µM; in series [1] (pCC50), 4.57 µM. The pIC50 is less than 4.60 in series [2] and 5.34 in series [3]. Further, the IC50 in series [2] was greater than 25.1 µM; in series [3], 4.57 µM.

In the case of `CNCc1ccc(C)c(NC(=O)c2ccc(Nc3nc(-c4ccccc4)c4ccccc4n3)cc2)c1` [BMS-833923], the CC50 at 48 h in series [1] (CC50) and in series [1] (pCC50) was 3.09 µM throughout. The values for the negative logarithm of the IC50 (pIC50) in series [2] and in series [3] were less than 4.00 and 5.53, respectively. In addition, the IC50 in series [2] is greater than 100 µM; in series [3], 2.95 µM.

For the compound `CC(C)(C)c1ccc(CN2CCN(C(c3ccccc3)c3ccc(Cl)cc3)CC2)cc1` (stereo not drawn) [BUCLIZINE], the CC50 at 48 h in series [1] (CC50) and in series [1] (pCC50) was 81.3 µM in each case. In addition, the figures for the pIC50 in series [2] and in series [3] were 4.69 and less than 4.00, respectively. Besides, the values for the IC50 in series [2] and in series [3] were 20.4 µM and greater than 100 µM, respectively.

With `Cc1[nH]c(/C=C2\C(=O)Nc3ccccc32)c(C)c1CCC(=O)O` [ORANTINIB], the CC50 at 48 h in series [1] (CC50) and in series [1] (pCC50) was greater than 25.1 µM in each case. Besides, the pIC50 was less than 4.60 in series [2] and roughly 5.75 in series [3]. Also, the IC50 in series [2] was greater than 25.1 µM; in series [3], roughly 1.78 µM.

Take `CN(C)CC/C=C1/c2ccccc2Sc2ccc(Cl)cc21` [CHLORPROTHIXENE]: the CC50 at 48 h in series [1] (CC50) and in series [1] (pCC50) was 13.8 µM each time. Moreover, the pIC50 in series [2] is less than 4.00; in series [3] it was 5.15. The values for the IC50 in series [2] and in series [3] were greater than 100 µM and 7.08 µM, respectively.

For `CC(Cc1ccc(O)c(O)c1)C(C)Cc1ccc(O)c(O)c1` (stereo not drawn) [NORDIHYDROGUAIARETIC ACID], the CC50 at 48 h in series [1] (CC50) and in series [1] (pCC50) was 37.2 µM throughout. The pIC50 in series [2] and in series [3] was less than 4.00 in each case. In addition, the IC50 in series [2] and in series [3] was greater than 100 µM in each case.

Turning to `COc1cc2c3cc1Oc1c(OC)c(OC)cc4c1[C@@H](Cc1cccc(c1)Oc1ccc(c(O)c1)C[C@@H]3N(C)CC2)N(C)CC4`, the CC50 at 48 h in series [1] (CC50) and in series [1] (pCC50) was 10.2 µM in each case. Further, the values for the pIC50 in series [2] and in series [3] were less than 5.20 and 5.07, respectively. The IC50 is greater than 6.31 µM in series [2] and 8.51 µM in series [3].

Turning to `Cc1cc(-c2ccc(/N=N/c3ccc4c(S(=O)(=O)O)cc(S(=O)(=O)O)c(N)c4c3O)c(C)c2)ccc1/N=N/c1ccc2c(S(=O)(=O)O)cc(S(=O)(=O)O)c(N)c2c1O` [EVANS BLUE FREE ACID], the CC50 at 48 h was 18 µM in series [1] (CC50) and 17.8 µM in series [1] (pCC50). In addition, the pIC50 in series [2] and in series [3] was less than 4.00 throughout. The IC50 in series [2] and in series [3] was greater than 100 µM in each case.

Take `COC(=O)N[C@H](C(=O)N1CCC[C@H]1c1nc(-c2ccc3cc(-c4ccc5[nH]c([C@@H]6CCCN6C(=O)[C@@H](NC(=O)OC)C(C)C)nc5c4)ccc3c2)c[nH]1)C(C)C`: the results for the CC50 at 48 h in series [1] (CC50) and in series [1] (pCC50) were 12.7 µM and 12.6 µM, respectively. The pIC50 in series [2] and in series [3] was less than 4.00 throughout. Besides, the IC50 in series [2] and in series [3] was greater than 100 µM in each case.

As to `COc1cc(Br)c2oc(C3CCNCC3)cc2c1` [BROFAROMINE], the CC50 at 48 h in series [1] (CC50) and in series [1] (pCC50) was 19.1 µM in each case. For the same compound, the results for the pIC50 in series [2] and in series [3] were less than 4.00 and 4.83, respectively. The IC50 is greater than 100 µM in series [2] and 14.8 µM in series [3].

Regarding `CC1(C)CCC(c2ccc(Cl)cc2)=C(CN2CCN(c3ccc(C(=O)NS(=O)(=O)c4ccc(N[C@H](CCN5CCOCC5)CSc5ccccc5)c(S(=O)(=O)C(F)(F)F)c4)cc3)CC2)C1` [NAVITOCLAX], the CC50 at 48 h was 4.73 µM in series [1] (CC50) and 4.68 µM in series [1] (pCC50). The pIC50 in series [2] and in series [3] was less than 4.00 throughout. For the same compound, the IC50 in series [2] and in series [3] was greater than 100 µM throughout.

Regarding `CO[C@H]1CC[C@H](n2c([C@H]3CCCC(=O)N3c3ccc(F)c(F)c3)nc3cc(-c4c(C)noc4C)ccc32)CC1` (relative stereo), the CC50 at 48 h in series [1] (CC50) and in series [1] (pCC50) was 9.12 µM in each case. In addition, the pIC50 in series [2] and in series [3] was less than 4.00 throughout. The IC50 in series [2] and in series [3] was greater than 100 µM throughout.

For `CCN(CCO)CCCC(C)Nc1ccnc2cc(Cl)ccc12` (stereo not drawn) [HYDROXYCHLOROQUINE], the CC50 at 48 h in series [1] (CC50) and in series [1] (pCC50) was 47.9 µM throughout. Also, the pIC50 in series [2] was roughly 4.77; in series [3], roughly 4.94. For the same compound, the IC50 was roughly 17 µM in series [2] and roughly 11.5 µM in series [3].

With `CCN(CC)CCCC(C)Nc1ccnc2cc(Cl)ccc12` (stereo not drawn) [CHLOROQUINE], the CC50 at 48 h in series [1] (CC50) was roughly 38.7 µM; in series [1] (pCC50), roughly 38.9 µM. Besides, the pIC50 is roughly 5.02 in series [2] and roughly 5.23 in series [3]. Moreover, the IC50 is roughly 9.55 µM in series [2] and roughly 5.89 µM in series [3].

On to `CN1CCN(CCCN2c3ccccc3Sc3ccc(C(F)(F)F)cc32)CC1` [TRIFLUOPERAZINE], for which the CC50 at 48 h in series [1] (CC50) and in series [1] (pCC50) was 7.94 µM each time. Further, the pIC50 was less than 4.00 in series [2] and 5.19 in series [3]. For the same compound, the figures for the IC50 in series [2] and in series [3] were greater than 100 µM and 6.46 µM, respectively.

Regarding `CCN(CCO)CCC[C@H](C)Nc1ccnc2cc(Cl)ccc12`, the CC50 at 48 h in series [1] (CC50) and in series [1] (pCC50) was greater than 50.1 µM in each case. For the same compound, the pIC50 in series [2] was roughly 4.73; in series [3], 4.90. Besides, the IC50 was roughly 18.6 µM in series [2] and 12.6 µM in series [3].

With `CC1=C(/C=C/C(C)=C/C=C/C(C)=C/C(=O)Nc2ccc(O)cc2)C(C)(C)CCC1` [FENRETINIDE], the CC50 at 48 h in series [1] (CC50) and in series [1] (pCC50) was 5.01 µM throughout. In addition, the values for the pIC50 in series [2] and in series [3] were 5.53 and less than 4.00, respectively. For the same compound, the IC50 in series [2] is 2.95 µM; in series [3], greater than 100 µM.

Regarding `C#CC1(OC(C)=O)CCC2C3CCC4=C/C(=N/O)CCC4C3CCC21CC` (stereo not drawn), the CC50 at 48 h in series [1] (CC50) and in series [1] (pCC50) was 20.9 µM in each case. Further, the pIC50 in series [2] and in series [3] was less than 4.00 in each case. Besides, the IC50 in series [2] and in series [3] was greater than 100 µM in each case.

Turning to `OCc1cc(C(O)CNCCCCCCOCCCCc2ccccc2)ccc1O` (stereo not drawn) [SALMETEROL], the CC50 at 48 h in series [1] (CC50) and in series [1] (pCC50) was 18.6 µM throughout. The pIC50 in series [2] is less than 4.00; in series [3], 4.72. The IC50 in series [2] was greater than 100 µM; in series [3], 19.1 µM.

Regarding `CNC(=O)[C@@H](c1ccccc1)N1CCc2cc(OC)c(OC)cc2[C@@H]1CCc1ccc(C(F)(F)F)cc1` [ALMOREXANT], the CC50 at 48 h in series [1] (CC50) and in series [1] (pCC50) was 21.4 µM throughout. For the same compound, the figures for the pIC50 in series [2] and in series [3] were less than 4.60 and 4.73, respectively. For the same compound, the IC50 in series [2] was greater than 25.1 µM; in series [3], 18.6 µM.

For the compound `O=C1NCN(c2ccccc2)C12CCN(CCCC(c1ccc(F)cc1)c1ccc(F)cc1)CC2`, the results for the CC50 at 48 h in series [1] (CC50) and in series [1] (pCC50) were 7 µM and 6.92 µM, respectively. Besides, the pIC50 in series [2] and in series [3] was less than 4.00 in each case. The IC50 in series [2] and in series [3] was greater than 100 µM in each case.

For `CN1CCC(c2cc3cc(Cl)ccc3o2)CC1`, the CC50 at 48 h in series [1] (CC50) and in series [1] (pCC50) was 34.7 µM throughout. The pIC50 in series [2] was less than 4.00; in series [3], 4.76. The results for the IC50 in series [2] and in series [3] were greater than 100 µM and 17 µM, respectively.

As for `O=C(N[C@H]1CN2CCC1CC2)c1cc2cccc(Cl)c2s1` [ENCENICLINE], the CC50 at 48 h in series [1] (CC50) and in series [1] (pCC50) was 20.9 µM each time. In addition, the pIC50 in series [2] and in series [3] was less than 4.00 each time. The IC50 in series [2] and in series [3] was greater than 100 µM each time.

With `Nc1nc(Nc2ccc3c(c2)CC[C@@H](N2CCCC2)CC3)nn1-c1cc2c(nn1)-c1ccccc1CCC2` [BEMCENTINIB], the CC50 at 48 h in series [1] (CC50) and in series [1] (pCC50) was 1.55 µM each time. Also, the pIC50 in series [2] is less than 4.30; in series [3], 5.75. Also, the IC50 was greater than 50.1 µM in series [2] and 1.78 µM in series [3].

The values are drawn from ChEMBL document CHEMBL4651402, “Screening of ~5500 FDA-approved drugs and clinical candidates for anti-SARS-CoV-2 activity” (2021).
